Values joined by “and” are separate entries in the source; they are usually repeats but may differ in a detail not shown here. Equal entries are not always repeated.
What was measured:
[1] = tested on: Igf2bp1-cMyc RNA interaction; set-up: method as in PMID 28846937; conditions: fluorescence polarization; cited from earlier work
[2] = set-up: method as in PMID 28846937; conditions: cited from earlier work
[3] = target: T1, Igf2bp1 (Homo sapiens, UniProt Q9NZI8); experiment: Fluorescence polarization (FP) assay of Igf2bp1 binding to fluorescent Kras 6 RNA; conditions: FP dose response; read-out: IC50, inhibition of Igf2bp1 binding to Kras 6 RNA
T1 construct: Recombinant full-length Igf2bp1 protein was labelled with RED-tris-NTA dye; made in house
Procedure: For the small-molecule screen, compounds were obtained from the collection maintained at the Grand Israel National Center for Personalized Medicine, consisting of molecules purchased from commercial vendors. Labelled RNA (10 nM) was incubated with recombinant Igf2bp1 protein (400 nM) in FAM-RNA buffer (10 mM Tris pH 8.0, 75 mM KCl, 0.5 mM EDTA, 1 mM DTT, 0.0188 U/μL RNAsin, 0.0005 μg/mL heparin, 0.0001 μg/μL tRNA, 0.01% Triton X-100, 3 mM MgCl2, 0.05% IGEPAL) at room temperature for 15 min. 7 μL of this reaction mix was aliquoted with GNF WDII (USA) into wells of 1536 well plates, with a final concentration of 20 μM compound or DMSO. The plates were spun down and read in a BMG Pherastar FS (Germany) plate reader, in FP mode with a 485/520/520 polarization filter, calibrated to 35 mP for free fluorescein with similar total intensity as experimental samples. […]
To determine the quality of our screening assay, the Z’ factor for each plate was calculated with a Z’ factor greater than 0.5 indicating a robust assay suitable for high throughput screening. Compounds that altered the overall fluorescence intensity compared to controls were considered auto florescence and excluded from further analysis. […] Any small molecule that causes a change of more than three standard deviations from the mean is determined appropriate for further investigation.

[4] = target: T1, Igf2bp1; experiment: Microscale thermophoresis (MST), full-length Igf2bp1; conditions: full-length protein, read-out: KD of compound binding to Igf2bp1
Procedure: Recombinant full-length Igf2bp1 protein was labelled with RED-tris-NTA dye using a Monolith NT His-Tag Labelling Kit (NanoTemper) while RRM12, KH12 and KH34 di-domain peptides were labelled using the Protein Labelling Kit RED NHS 2nd generation (NanoTemper). Labelled proteins were spun at 15,000 g for 5 min to eliminate aggregates. All samples were 2X labelled protein mix of Igf2bp1 (200 nM) in PBST and were combined (1:1) with serial dilutions of compound or Kras6 RNA in binding buffer (10mMTris pH = 7.5, 100 mM NaCl, 0.1 mM EDTA, 0.06% IPEGAL, 0.02 μg/μL tRNA, 2 mM DTT, 0.1 μg/μL heparin) in final volume of 20 μL, room temperature for 15 min. Samples were then loaded into standard capillaries (NanoTemper) and read in the Monolith NT.115 scanner (NanoTemper) using the red filter with reading conditions of 95% LED power and 40% MST power, 5 sec fluorescence before, 30 sec MST on, 5 sec fluorescence after and 25 sec delay between samples. Results were analysed using the MO Control software (NanoTemper) for curve fitting to KD.

[5] = target: T1, Igf2bp1; experiment: EMSA, Igf2bp1 with fluorescent Kras 6 RNA; assay type: binding; conditions: compound pre-incubated with protein; 7773 at 200 μM
Procedure: Recombinant Igf2bp1 protein was serially diluted (1:1) starting at an initial concentration of 10,000 nM in 0.75 μg heparin, in a total volume of 13 μL. […] 2 μL RNA was added to each well protein sample, and after a 30 min incubation at room temperature in the dark, loading dye (3 μL) (30% glycerol, 0.01% bromocresol green) was added to each mixture. For compound inhibition experiments, compounds or DMSO were incubated for 4 hours at 37 °C with the protein prior to adding the RNA. Samples were electrophoresed on native TBE polyacrylamide gels (6% acrylamide/bis-acrylamide 37.5:1, 0.5X TBE) that had been pre-run for 30 min. Gels were run at 120 V in 0.5X TBE, at 4°C in the dark. They were then carefully washed and scanned using a Typhoon FLA9500 imager using Alexa 488 laser and LPB1/2 filter. Igf2bp1-RNA complex formation was quantified using the ImageJ software. Prism6 software was used for curve fitting and KD calculations.

T1 sequence (Q9NZI8 whole entry): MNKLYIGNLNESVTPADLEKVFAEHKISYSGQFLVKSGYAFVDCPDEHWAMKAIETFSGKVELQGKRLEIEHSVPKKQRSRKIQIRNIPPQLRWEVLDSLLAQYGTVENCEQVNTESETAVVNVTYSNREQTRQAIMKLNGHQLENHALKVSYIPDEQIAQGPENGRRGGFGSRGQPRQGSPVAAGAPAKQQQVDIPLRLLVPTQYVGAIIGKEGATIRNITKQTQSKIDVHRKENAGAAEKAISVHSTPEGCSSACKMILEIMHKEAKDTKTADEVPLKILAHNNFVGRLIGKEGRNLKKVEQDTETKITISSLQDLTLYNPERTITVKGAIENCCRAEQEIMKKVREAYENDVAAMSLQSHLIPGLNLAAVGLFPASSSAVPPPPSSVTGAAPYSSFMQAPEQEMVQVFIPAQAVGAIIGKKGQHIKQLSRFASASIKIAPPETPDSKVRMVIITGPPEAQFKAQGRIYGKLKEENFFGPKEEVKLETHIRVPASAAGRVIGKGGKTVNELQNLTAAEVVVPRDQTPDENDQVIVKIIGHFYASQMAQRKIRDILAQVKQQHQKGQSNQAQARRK

Row | IC50 [3] [µM] | Kd [4] | Structure (SMILES) | Inhibition of Igf2bp1-cMyc RNA interaction in vitro [1] | Effect on cell proliferation [2] | Inhibition of Igf2bp1 binding to Kras 6 RNA (gel shift) [5]
1 | – | – | NC(=O)c1ccccc1N=Cc1ccc(Br)s1 [BTYNB] | inhibited Igf2bp1-cMyc RNA interaction in vitro | appears to inhibit cell proliferation | –
2 | ~90 | > 100 µM and ~120 µM | O=C(c1cccc(-n2cnnn2)c1)N1CCCC(Nc2ccc3c(c2)OCO3)C1 (centres unmarked) [compound 393] | – | – | lower, but observable, inhibition of RNA binding

From PMC8794255, “Small molecule inhibitor of Igf2bp1 represses Kras and a pro-oncogenic phenotype in cancer cells” (RNA Biology, 2021)
